From US20230203059A1, “MACROCYCLIC JAK INHIBITOR AND USES THEREOF” (Biopolar Hongye (Guangdong) Pharmaceutical Co. Ltd., priority 2020, published 2023)

Experiments:
Type in all cases: biochemical
JAK1 = JAK1 (Homo sapiens, UniProt P23458); assay: JAK kinase activity, homogeneous time-resolved fluorescence (JAK1 reaction system); conditions: ATP 2 μM, JAK1 protein 0.2 ng/μL; read-out: JAK 1 activity
Method: (§1) The activity measurement method of JAK kinase was to use homogeneous time-resolved fluorescence technique. The reaction was performed in 384 shallow well plates with a total reaction volume of 10 μL. The mixture of kinase protein, compound, ATP and substrate was carried out in a reaction buffer of 50 mM Hepes (pH7.0), NaN3 0.02%, BSA 0.01%, 0.1 mM Orthocanadate, 5 mM MgCl2, and 1 mM DTT. After reacting for 1 hour, an antibody capable of recognizing substrate phosphorylation, dye XL-615 and detection buffer (Cisbio) containing EDTA were added to the system. The reaction signal of kinase was detected by PE company's porous plate detector. The parameter settings were excitation light at 320 nm, emission light at 615 nm and 665 nm. The activity of JAK is indirectly reflected by the signal ratio of 665 nm and 615 nm. In the reaction, the background well without enzyme and the total enzyme activity well without compound were set.
(§2) The IC50 value of the compound inhibiting protein was obtained by the formula: Y=100/(1+10^((Log IC50−X)*HillSlope)). In JAK1 reaction system, the concentration of ATP was 2 μM, and the concentration of JAK1 protein was 0.2 ng/μL.

JAK2 = JAK2 (Homo sapiens, UniProt O60674); assay: JAK kinase activity, homogeneous time-resolved fluorescence (JAK2 reaction system); conditions: ATP 2 μM, JAK2 protein 0.01 ng/μL
Method: as §1, §2
In JAK2 reaction system, the concentration of ATP was 2 μM, and the concentration of JAK2 protein was 0.01 ng/μL.

JAK3 = molecular target: T1, JAK3 (Homo sapiens, UniProt P52333); assay: JAK kinase activity, homogeneous time-resolved fluorescence (JAK3 reaction system); conditions: ATP 2 μM, JAK3 protein 0.04 ng/μL; read-out: JAK 3 activity
T1 sequence (P52333 1-1124): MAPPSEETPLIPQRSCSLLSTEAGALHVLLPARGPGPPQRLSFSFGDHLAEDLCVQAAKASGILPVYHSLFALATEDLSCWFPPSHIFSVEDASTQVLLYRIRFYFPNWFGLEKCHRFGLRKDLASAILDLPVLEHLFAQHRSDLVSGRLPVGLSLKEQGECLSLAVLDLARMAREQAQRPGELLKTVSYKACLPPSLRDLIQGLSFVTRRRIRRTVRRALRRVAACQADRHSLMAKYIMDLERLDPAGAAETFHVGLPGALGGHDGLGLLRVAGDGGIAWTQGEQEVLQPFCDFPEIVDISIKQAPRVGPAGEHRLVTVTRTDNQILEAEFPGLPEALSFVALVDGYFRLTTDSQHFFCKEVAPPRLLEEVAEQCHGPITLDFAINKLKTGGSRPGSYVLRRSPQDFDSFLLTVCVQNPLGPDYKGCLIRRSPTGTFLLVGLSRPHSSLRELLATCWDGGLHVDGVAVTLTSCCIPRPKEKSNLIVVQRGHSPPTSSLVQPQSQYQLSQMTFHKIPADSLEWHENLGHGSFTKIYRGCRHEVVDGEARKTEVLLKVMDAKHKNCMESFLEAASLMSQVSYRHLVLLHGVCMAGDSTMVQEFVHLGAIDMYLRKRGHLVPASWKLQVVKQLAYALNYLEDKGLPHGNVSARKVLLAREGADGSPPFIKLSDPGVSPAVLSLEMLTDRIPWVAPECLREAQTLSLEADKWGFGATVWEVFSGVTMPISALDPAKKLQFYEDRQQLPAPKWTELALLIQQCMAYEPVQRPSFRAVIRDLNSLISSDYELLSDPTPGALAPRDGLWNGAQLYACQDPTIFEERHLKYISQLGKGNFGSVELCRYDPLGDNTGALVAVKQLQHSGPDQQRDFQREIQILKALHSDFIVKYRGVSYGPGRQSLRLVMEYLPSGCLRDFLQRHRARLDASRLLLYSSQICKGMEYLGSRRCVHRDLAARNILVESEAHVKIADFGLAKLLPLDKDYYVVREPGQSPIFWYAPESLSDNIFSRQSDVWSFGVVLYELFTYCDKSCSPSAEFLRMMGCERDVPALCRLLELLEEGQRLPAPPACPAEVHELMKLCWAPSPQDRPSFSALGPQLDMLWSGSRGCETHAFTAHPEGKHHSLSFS
Method: as §1, with “The reaction was performed in 384 shallow well plates with a total reaction volume of 10 μL.” left out, “After reacting for 1 hour, an antibody capable of recognizing substrate phosphorylation, dye XL-615 and detection buffer (Cisbio) containing EDTA were added to the system.” left out, “set. […]” for “set.”
In JAK3 reaction system, the concentration of ATP was 2 μM, and the concentration of JAK3 protein was 0.04 ng/μL.

TYK2 = TYK2 (Homo sapiens, UniProt P29597); assay: JAK kinase activity, homogeneous time-resolved fluorescence (TYK2 reaction system); conditions: ATP 2 μM, TYK2 protein 0.2 ng/μL; read-out: TYK 2 activity
Method: as §1, §2
In TYK2 reaction system, the concentration of ATP was 2 μM, and the concentration of TYK2 protein was 0.2 ng/μL.

Sequence of JAK2 (O60674 whole entry): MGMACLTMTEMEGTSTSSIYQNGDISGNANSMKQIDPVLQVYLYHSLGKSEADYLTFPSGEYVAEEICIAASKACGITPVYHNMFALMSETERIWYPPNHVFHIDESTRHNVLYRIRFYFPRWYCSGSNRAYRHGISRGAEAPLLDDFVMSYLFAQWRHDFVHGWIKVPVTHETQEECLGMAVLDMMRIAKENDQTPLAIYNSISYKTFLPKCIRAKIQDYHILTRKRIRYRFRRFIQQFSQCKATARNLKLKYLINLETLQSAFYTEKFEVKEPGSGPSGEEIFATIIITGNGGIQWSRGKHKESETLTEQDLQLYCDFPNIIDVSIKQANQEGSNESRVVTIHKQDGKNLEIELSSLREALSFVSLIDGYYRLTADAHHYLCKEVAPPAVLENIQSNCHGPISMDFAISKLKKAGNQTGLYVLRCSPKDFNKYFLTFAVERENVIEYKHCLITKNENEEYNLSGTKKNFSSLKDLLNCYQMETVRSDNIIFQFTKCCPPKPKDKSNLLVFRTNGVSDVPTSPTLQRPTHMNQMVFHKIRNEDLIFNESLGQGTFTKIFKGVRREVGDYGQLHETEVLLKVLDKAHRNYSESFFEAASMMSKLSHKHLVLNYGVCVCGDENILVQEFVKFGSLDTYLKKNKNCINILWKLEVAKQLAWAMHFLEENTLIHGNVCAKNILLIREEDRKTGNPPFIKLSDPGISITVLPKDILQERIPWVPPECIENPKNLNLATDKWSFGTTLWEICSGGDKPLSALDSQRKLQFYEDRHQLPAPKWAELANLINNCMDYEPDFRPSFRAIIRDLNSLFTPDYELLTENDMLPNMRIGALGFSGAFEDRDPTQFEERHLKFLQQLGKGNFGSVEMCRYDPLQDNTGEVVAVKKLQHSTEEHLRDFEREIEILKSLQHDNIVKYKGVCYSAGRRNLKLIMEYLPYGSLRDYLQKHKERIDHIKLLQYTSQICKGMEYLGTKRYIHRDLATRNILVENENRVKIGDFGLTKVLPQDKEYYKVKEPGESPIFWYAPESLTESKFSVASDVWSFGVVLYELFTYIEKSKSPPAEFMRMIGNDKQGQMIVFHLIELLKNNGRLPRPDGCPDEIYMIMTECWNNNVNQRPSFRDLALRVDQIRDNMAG
Sequence of TYK2 (P29597 whole entry): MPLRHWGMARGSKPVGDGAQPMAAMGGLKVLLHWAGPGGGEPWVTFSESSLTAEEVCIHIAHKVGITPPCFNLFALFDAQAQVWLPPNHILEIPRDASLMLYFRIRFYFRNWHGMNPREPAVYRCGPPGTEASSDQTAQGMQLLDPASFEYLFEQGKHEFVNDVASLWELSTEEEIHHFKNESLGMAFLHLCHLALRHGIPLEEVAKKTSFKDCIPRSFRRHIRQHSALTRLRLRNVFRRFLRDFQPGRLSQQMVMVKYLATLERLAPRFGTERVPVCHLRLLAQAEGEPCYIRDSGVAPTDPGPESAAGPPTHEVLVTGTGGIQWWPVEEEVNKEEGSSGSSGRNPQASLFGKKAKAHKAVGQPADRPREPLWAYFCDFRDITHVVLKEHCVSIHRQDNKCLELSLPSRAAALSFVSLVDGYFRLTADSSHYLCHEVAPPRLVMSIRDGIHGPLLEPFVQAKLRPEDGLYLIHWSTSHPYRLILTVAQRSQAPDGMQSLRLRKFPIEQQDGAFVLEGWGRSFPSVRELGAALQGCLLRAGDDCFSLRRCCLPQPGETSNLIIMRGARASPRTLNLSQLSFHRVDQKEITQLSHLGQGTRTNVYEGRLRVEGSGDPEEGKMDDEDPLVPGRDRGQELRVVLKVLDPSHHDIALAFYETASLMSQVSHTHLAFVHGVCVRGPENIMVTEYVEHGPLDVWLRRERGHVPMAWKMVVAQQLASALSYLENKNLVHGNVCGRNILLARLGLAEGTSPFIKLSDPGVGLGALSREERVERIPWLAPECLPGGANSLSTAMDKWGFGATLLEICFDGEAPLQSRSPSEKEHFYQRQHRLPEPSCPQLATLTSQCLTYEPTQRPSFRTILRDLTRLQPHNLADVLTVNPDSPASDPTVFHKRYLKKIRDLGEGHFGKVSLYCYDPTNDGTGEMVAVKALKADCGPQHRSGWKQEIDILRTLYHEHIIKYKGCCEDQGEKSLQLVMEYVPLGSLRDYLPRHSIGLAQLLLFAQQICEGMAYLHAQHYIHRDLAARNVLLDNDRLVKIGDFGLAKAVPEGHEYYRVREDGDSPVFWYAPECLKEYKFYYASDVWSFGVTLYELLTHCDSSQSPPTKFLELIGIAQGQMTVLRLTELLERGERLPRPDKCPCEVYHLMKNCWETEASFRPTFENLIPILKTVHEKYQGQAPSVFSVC
Sequence of JAK1 (P23458 whole entry): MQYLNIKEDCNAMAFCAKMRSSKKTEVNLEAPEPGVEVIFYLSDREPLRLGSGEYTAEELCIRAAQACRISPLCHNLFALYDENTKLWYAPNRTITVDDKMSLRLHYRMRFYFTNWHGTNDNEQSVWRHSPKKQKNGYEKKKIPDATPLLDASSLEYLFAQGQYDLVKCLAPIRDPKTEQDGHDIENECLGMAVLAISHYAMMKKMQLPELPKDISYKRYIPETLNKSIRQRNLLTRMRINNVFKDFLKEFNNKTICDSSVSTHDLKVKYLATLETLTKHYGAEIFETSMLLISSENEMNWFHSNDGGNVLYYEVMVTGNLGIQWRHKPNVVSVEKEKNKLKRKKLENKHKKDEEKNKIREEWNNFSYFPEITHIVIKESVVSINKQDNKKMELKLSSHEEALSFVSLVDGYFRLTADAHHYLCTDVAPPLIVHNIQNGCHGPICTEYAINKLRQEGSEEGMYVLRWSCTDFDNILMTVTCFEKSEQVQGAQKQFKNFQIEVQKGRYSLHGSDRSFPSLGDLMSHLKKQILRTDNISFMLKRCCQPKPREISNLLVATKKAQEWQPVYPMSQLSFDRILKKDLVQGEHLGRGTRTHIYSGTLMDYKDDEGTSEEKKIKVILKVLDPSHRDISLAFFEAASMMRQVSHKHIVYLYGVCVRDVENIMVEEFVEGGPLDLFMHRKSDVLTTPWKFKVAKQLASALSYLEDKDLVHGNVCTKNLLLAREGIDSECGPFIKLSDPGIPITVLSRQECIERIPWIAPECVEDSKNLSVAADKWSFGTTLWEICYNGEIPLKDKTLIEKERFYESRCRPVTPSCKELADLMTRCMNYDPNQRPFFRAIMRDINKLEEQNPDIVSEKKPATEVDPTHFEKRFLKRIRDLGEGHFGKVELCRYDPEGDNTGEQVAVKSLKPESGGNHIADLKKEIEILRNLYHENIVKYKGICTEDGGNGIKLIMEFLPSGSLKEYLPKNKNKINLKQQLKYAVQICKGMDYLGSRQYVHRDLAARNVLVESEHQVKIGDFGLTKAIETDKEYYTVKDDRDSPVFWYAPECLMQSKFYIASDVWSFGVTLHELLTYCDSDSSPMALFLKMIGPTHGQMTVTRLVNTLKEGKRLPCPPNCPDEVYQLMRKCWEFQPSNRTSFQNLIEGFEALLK

| SMILES | IC50 (JAK1) | IC50 (JAK2) | IC50 (JAK3) | IC50 (TYK2) |
| --- | --- | --- | --- | --- |
| O=C1NCCCCOCc2cc(ccc2OCC(F)(F)F)Nc2nccc(n2)-c2ccc1cc2[N+](=O)[O-] [Example 108, 1^2-nitro-4^4-(2,2,2-trifluoroethoxy)-6-oxa-3,11-diaza-2(4,2)-pyrimidina-1(1,4),4(1,3)-dibenzenacyclo-dodecaphan-12-one] | 1 to 10 µM | 1 to 10 µM | 0.101 to 1 µM | > 10 µM |
| COc1cc(Cl)cc(F)c1COc1ccc2cc1COCCCCNC(=O)c1ccc(c(N)c1)-c1ccnc(n1)N2 [Example 193, 1^2-amino-4^4-((4-chloro-2-fluoro-6-methoxybenzyl)oxy)-6-oxa-3,11-diaza-2(4,2)-pyrimidina-1(1,4),4(1,3)-dibenzenacyclododecaphan-12-one] | 1 to 10 µM | 1 to 10 µM | 0.011 to 0.1 µM | 1 to 10 µM |
| CN1CCN(c2ccc3cc2COCCCCNC(=O)c2ccc(cc2)-c2ccnc(n2)N3)CC1 [Example 7, 4^4-(4-methylpiperazin-1-)-6-oxa-3,11-diaza-2(4,2)-pyrimidina-1(1,4),4(1,3)-dibenzenacyclododecaphan-12-one] | 0.101 to 1 µM | 0.011 to 0.1 µM | 0.011 to 0.1 µM | 0.101 to 1 µM |
| O=C1NCCCCOCc2cc(ccc2N2CCOCC2)Nc2nccc(n2)-c2ccc1cc2 [Example 1, 4^4-morpholin-6-oxa-3, 11-diaza-2 (4,2)-pyrimidina-1(1,4),4(1,3)-dibenzenacyclododecaphan-12-one] | 0.011 to 0.1 µM | 0.011 to 0.1 µM | < 0.01 µM | 0.101 to 1 µM |
| O=C1Nc2ccc(cc2)OCc2cc(ccc2OC2CC2)Nc2nccc(n2)-c2ccc1cc2O [Example 217, 4^4-cyclopropoxy-1^2-hydroxy-6-oxa-3,8-diaza-2(4,2)-pyrimidina-1,7(1,4),4(1,3)-tribenzenacyclononaphane-9-one] | 0.101 to 1 µM | 0.101 to 1 µM | 0.011 to 0.1 µM | 1 to 10 µM |
| Nc1cc2ccc1-c1ccnc(n1)Nc1ccc(Oc3ccc(F)cc3)c(c1)COCCCCNC2=O [Example 107, 1^2-amino-4^4-(4-fluorophenoxy)-6-oxa-3,11-diaza-2(4,2)-pyrimidina-1(1,4),4(1,3)-dibenzenacyclo-dodecaphan-12-one] | 1 to 10 µM | 0.101 to 1 µM | 0.011 to 0.1 µM | > 10 µM |
| O=C1NCCCCOCc2cc(ccc2N2CCCCC2)Nc2nccc(n2)-c2ccc1cc2[N+](=O)[O-] [Example 48, 1^2-nitro-4^4-(piperidin-1-)-6-oxa-3,11-diaza-2(4,2)-pyrimidina-1(1,4),4(1,3)-dibenzenacyclododecaphan-12-one] | 1 to 10 µM | 1 to 10 µM | 0.101 to 1 µM | 1 to 10 µM |
| Nc1cc2ccc1-c1ccnc(n1)Nc1ccc(OCC3CCCOC3)c(c1)COc1ccc(cc1)NC2=O (centres unmarked) [Example 213, 1^2-amino-4^4-((tetrahydro-2H-pyran-3-yl)methoxy)-6-oxa-3,8-diaza-2(4,2)-pyrimidina-1,7(1,4),4(1,3)-tri-benzenacyclononaphane-9-one] | 1 to 10 µM | 1 to 10 µM | 0.011 to 0.1 µM | > 10 µM |

The remaining lines, values ahead:

| IC50 (JAK1) | IC50 (JAK2) | IC50 (JAK3) | IC50 (TYK2) | SMILES |
| --- | --- | --- | --- | --- |
| 1 to 10 µM | 0.101 to 1 µM | < 0.01 µM | 1 to 10 µM | Nc1cc2ccc1-c1ccnc(n1)Nc1ccc(Oc3cccnc3)c(c1)COCCCCNC2=O [Example 110, 1^2-amino-4^4-(pyridin-3-oxy)-6-oxa-3,11-diaza-2(4,2)-pyrimidina-1(1,4),4(1,3)-dibenzenacyclodo-decaphan-12-one] |
| 1 to 10 µM | 0.101 to 1 µM | 0.011 to 0.1 µM | > 10 µM | Cc1cc2ccc1-c1ccnc(n1)Nc1ccc(N)c(c1)COCCCCNC2=O [Example 78, 4^4-amino-1^2-methyl-6-oxa-3,11-dia-za-2(4,2)-pyrimidina-1(1,4),4(1,3)-dibenzenacyclododecaphan-12-one] |
| 0.101 to 1 µM | 0.101 to 1 µM | < 0.01 µM | 1 to 10 µM | Nc1cc2ccc1-c1ccnc(n1)Nc1ccc(OCC3CCC3)c(c1)COCCCCNC2=O [Example 100, 1^2-amino-4^4-(cyclobutylmethoxy)-6-oxa-3,11-diaza-2(4,2)-pyrimidina-1(1,4),4(1,3)-dibenzenacyclododeca-phan-12-one] |
| 0.101 to 1 µM | 0.101 to 1 µM | 0.011 to 0.1 µM | > 10 µM | Nc1cc2ccc1-c1ccnc(n1)Nc1ccc(Br)c(c1)COCCCCNC2=O [Example 90, 1^2-amino-4^4-bromo-6-oxa-3,11-diaza-2(4,2)-pyrimidina-1(1,4),4(1,3)-di-benzenacyclododecaphan-12-one] |
| 1 to 10 µM | 0.101 to 1 µM | 0.011 to 0.1 µM | > 10 µM | COc1ccccc1COc1ccc2cc1COCCCCNC(=O)c1ccc(c(N)c1)-c1ccnc(n1)N2 [Example 156, 1^2-amino-4^4-((2-methoxybenzyl)oxy)-6-oxa-3,11-diaza-2(4,2)-pyri-midina-1(1,4),4(1,3)-dibenzena-cyclododecaphan-12-one] |
| 0.101 to 1 µM | 0.011 to 0.1 µM | 0.011 to 0.1 µM | 1 to 10 µM | O=C1NCCCCOCc2cc(ccc2N2CCCCC2)Nc2nccc(n2)-c2ccc1cc2F [Example 29, 1^2-fluoro-4^4-(piperidin-1-)-6-oxa-3,11-diaza-2(4,2)-pyrimidina-1(1,4),4(1,3)-dibenzenacyclododecaphan-12-one] |
| 0.101 to 1 µM | 0.011 to 0.1 µM | 0.011 to 0.1 µM | 0.101 to 1 µM | CN(C)c1ccc2cc1COCCCCNC(=O)c1ccc(c(F)c1)-c1ccnc(n1)N2 [Example 28, 1^2-fluoro-4^4-dimethylamino-6-oxa-3,11-diaza-2(4,2)-pyrimidina-1(1,4),4(1,3)-dibenzenacyclododecaphan-12-one] |
| 1 to 10 µM | 1 to 10 µM | 1 to 10 µM | > 10 µM | O=C1NC2CCC(CC2)COCc2cc(ccc2N2CCOCC2)Nc2nccc(n2)-c2ccc1cc2 [Example 80, 4^4-morpholine-6-oxa-3,9-diaza-2(4,2)-pyrimidina-1(1,4),4(1,3)-dibenze-na-8(1,4)-cyclododecaphan-10-one] |
| 0.101 to 1 µM | 0.011 to 0.1 µM | < 0.01 µM | 0.101 to 1 µM | CC1CCOCc2cc(ccc2OC2CC2)Nc2nccc(n2)-c2ccc(cc2N)C(=O)NC1 (centres unmarked) [Example 157, 1^2-amino-4^4-cyclopropoxy-9-meth-yl-6-oxa-3,11-diaza-2(4,2)-pyrimi-dina-1(1,4),4(1,3)-dibenzenacyclo-dodecaphan-12-one] |
